Source: paper PMC9293210, “Molecular Recognition of Natural and Non‐Natural Substrates by Cellodextrin Phosphorylase from Ruminiclostridium Thermocellum Investigated by NMR Spectroscopy” (Chemistry (Weinheim an Der Bergstrasse, Germany), 2021)

Tests used:
[1] = target: T1, cellodextrin phosphorylase (CDP) (Acetivibrio thermocellus, UniProt Q93HT8); test: STD NMR titration (STD-AF of H4beta, […] s saturation); format: binding; details: [D11]Tris 25 mM pH 7.4, NaCl 100 mM; no phosphate; apparent
T1 construct: gene cdp-ym4; 1009 amino acids, 114 kDa per monomer, homodimer
T1 sequence (Q93HT8 1-984): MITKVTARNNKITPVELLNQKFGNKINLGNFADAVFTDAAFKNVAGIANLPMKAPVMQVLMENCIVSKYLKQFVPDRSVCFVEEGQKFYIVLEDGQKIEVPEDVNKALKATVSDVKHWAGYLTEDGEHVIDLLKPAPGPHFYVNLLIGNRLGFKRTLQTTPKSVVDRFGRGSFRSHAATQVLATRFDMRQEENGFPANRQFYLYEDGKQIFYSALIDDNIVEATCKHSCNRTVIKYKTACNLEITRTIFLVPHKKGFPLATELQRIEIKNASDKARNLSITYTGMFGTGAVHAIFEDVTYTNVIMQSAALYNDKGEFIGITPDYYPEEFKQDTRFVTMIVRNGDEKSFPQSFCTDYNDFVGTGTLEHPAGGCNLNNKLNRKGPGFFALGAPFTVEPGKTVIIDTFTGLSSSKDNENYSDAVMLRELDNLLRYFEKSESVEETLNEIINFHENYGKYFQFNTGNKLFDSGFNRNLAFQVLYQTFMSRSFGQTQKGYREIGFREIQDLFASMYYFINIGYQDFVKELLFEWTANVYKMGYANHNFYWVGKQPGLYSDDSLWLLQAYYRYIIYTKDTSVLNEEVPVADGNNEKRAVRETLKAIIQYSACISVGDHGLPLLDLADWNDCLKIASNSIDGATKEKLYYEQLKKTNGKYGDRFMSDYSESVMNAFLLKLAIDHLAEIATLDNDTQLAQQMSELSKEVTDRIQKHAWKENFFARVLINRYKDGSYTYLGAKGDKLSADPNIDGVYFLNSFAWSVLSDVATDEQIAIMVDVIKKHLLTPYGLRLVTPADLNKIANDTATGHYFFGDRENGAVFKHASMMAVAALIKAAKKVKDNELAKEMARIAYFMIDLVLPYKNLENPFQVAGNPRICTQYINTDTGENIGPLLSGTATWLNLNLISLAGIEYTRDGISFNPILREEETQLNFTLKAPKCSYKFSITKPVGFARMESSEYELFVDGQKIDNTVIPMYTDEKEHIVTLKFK

[2] = target: T1, cellodextrin phosphorylase (CDP); test: STD NMR, binding epitope mapping; details: [D11]Tris 25 mM pH 7.4, NaCl 100 mM, 278 K; 3 mM ligand, 15 uM binding sites; acceptor site
[3] = target: T1, cellodextrin phosphorylase (CDP); test: STD NMR, binding epitope mapping; tr-NOESY; details: [D11]Tris 25 mM pH 7.4, NaCl 100 mM, 278 K (STD); tr-NOESY 290 K; 3 mM ligand, 15 uM binding sites (STD); acceptor site

Structure (SMILES): OC[C@H]1O[C@@H](O[C@H]2[C@H](O)[C@@H](O)C(O)O[C@@H]2CO)[C@H](O)[C@@H](O)[C@@H]1O (stereo partly drawn) [D-cellobiose]
- Kd [1]: 2200 µM

Structure (SMILES): OC[C@H]1O[C@@H](O[C@H]2[C@H](O)[C@@H](O)[C@H](O[C@H]3[C@H](O)[C@@H](O)C(O)O[C@@H]3CO)O[C@@H]2CO)[C@H](O)[C@@H](O)[C@@H]1O (stereo partly drawn) [D-cellotriose]
- STD NMR, binding epitope mapping [2]: D‐cellotriose showed contacts for both the reducing α‐ and β‐glucose rings

Structure (SMILES): OC[C@H]1O[C@@H](O[C@H]2[C@H](O)[C@@H](CO)OC(O)[C@@H]2O)[C@H](O)[C@@H](O)[C@@H]1O (stereo partly drawn) [D-laminaribiose]
- STD NMR, binding epitope mapping; tr-NOESY [3]: H2 of the non‐reducing glucose ring received the largest saturation transfer
